According to patent US8952024B2, “Herbicidal pyrimidone derivatives” (E I du Pont de Nemours and Company, priority 2009, dated 2015):

How the values were obtained:
Format in all cases: in vivo
[1] = tested on: barnyardgrass (Echinochloa crus-galli); test: Test A pre-/postemergence plant response
Excerpt: (§1) Seeds of barnyardgrass (Echinochloa crus-galli), large crabgrass (Digitaria sanguinalis), giant foxtail (Setaria faberii), morningglory (Ipomoea spp.), pigweed (Amaranthus retroflexus), velvetleaf (Abutilon theophrasti), wheat (Triticum aestivum) and corn (Zea mays) were planted into a blend of loam soil and sand and treated preemergence with a directed soil spray using test chemicals formulated in a non-phytotoxic solvent mixture which included a surfactant. At the same time these species were also treated with postemergence applications of test compounds formulated in the same manner.
(§2) Plants ranged in height from two to ten cm and were in the one- to two-leaf stage for the postemergence treatment. Treated plants and untreated controls were maintained in a greenhouse for approximately ten days, after which time all treated plants were compared to untreated controls and visually evaluated for injury. Plant response ratings, summarized in Table A, are based on a 0 to 100 scale where 0 is no effect and 100 is complete control. A dash (-) response means no test result.

[2] = tested on: corn (Zea mays); test: Test A pre-/postemergence plant response
Excerpt: as §1, §2

[3] = tested on: giant foxtail (Setaria faberii); test: Test A pre-/postemergence plant response
Excerpt: as §1, §2

[4] = tested on: large crabgrass (Digitaria sanguinalis); test: Test A pre-/postemergence plant response
Excerpt: as §1, §2

[5] = tested on: morningglory (Ipomoea spp.); test: Test A pre-/postemergence plant response
Excerpt: as §1, §2

[6] = tested on: pigweed (Amaranthus retroflexus); test: Test A pre-/postemergence plant response
Excerpt: as §1, §2

[7] = tested on: velvetleaf (Abutilon theophrasti); test: Test A pre-/postemergence plant response
Excerpt: as §1, §2

[8] = tested on: wheat (Triticum aestivum); test: Test A pre-/postemergence plant response
Excerpt: as §1, §2

[9] = tested on: barnyardgrass (Echinochloa crus-galli); test: Test B flooded paddy test; conditions: for Plant response rating, Flood, Barnyardgrass: 250 g ai/ha, flooded paddy test, visual rating on 0 to 100 scale (0 no effect, 100 complete control) after 13 to 15 days; for Plant response rating, Barnyardgrass: Flood (flooded paddy test), 13 to 15 days
How it was run: (§3)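 Greenhouse-held for 13 to 15 days, treated pots were compared visually with controls and scored 0–100 (0, no effect). Treatment had been made into paddy water kept at 3 cm above the soil, with plants at the 2-leaf stage.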

[10] = tested on: ducksalad (Heteranthera limosa); test: Test B flooded paddy test; conditions: for Plant response rating, Flood, Ducksalad: 250 g ai/ha, flooded paddy test, visual rating on 0 to 100 scale (0 no effect, 100 complete control) after 13 to 15 days; for Plant response rating, Ducksalad: Flood (flooded paddy test), 13 to 15 days
How it was run: as §3

[11] = tested on: rice (Oryza sativa); test: Test B flooded paddy test; conditions: for Plant response rating, Flood, Rice: 250 g ai/ha, flooded paddy test, visual rating on 0 to 100 scale (0 no effect, 100 complete control) after 13 to 15 days; for Plant response rating, Rice: Flood (flooded paddy test), 13 to 15 days
How it was run: as §3

[12] = tested on: umbrella sedge (Cyperus difformis); test: Test B flooded paddy test; conditions: for Plant response rating, Flood, Sedge, Umbrella: 250 g ai/ha, flooded paddy test, visual rating on 0 to 100 scale (0 no effect, 100 complete control) after 13 to 15 days; for Plant response rating, Sedge, Umbrella: Flood (flooded paddy test), 13 to 15 days
How it was run: as §3

[13] = Postemergence, 125 g ai/ha, 0 to 100 scale where 0 is no effect and 100 is complete control
[14] = Postemergence, 500 g ai/ha, visual injury, 0 to 100 scale (0 no effect, 100 complete control), approx. ten days
[15] = Preemergence, 125 g ai/ha, 0 to 100 scale, 0 = no effect, 100 = complete control
[16] = Preemergence, 500 g ai/ha, 0 to 100 scale, 0 = no effect, 100 = complete control
[17] = 62 g ai/ha, scale of 0 to 100 where 0 is no effect and 100 is complete control
[18] = 125 g ai/ha, scale 0 to 100, 0 is no effect, 100 is complete control
[19] = Flood, 31 g ai/ha, scale 0 to 100 (0 no effect, 100 complete control)
[20] = Postemergence, 500 g ai/ha, 0 to 100 scale, 0 = no effect, 100 = complete control, approx. ten days
[21] = Preemergence, 500 g ai/ha, visual injury, 0 to 100 scale (0 no effect, 100 complete control), approx. ten days

CCc1ccc(-n2c(-c3cccc(C)c3)ncc(C(=O)C3=C(O)CCCC3=O)c2=O)cc1 [Compound 213]
Plant response rating, Barnyardgrass [1, 13]: 20
Barnyardgrass plant response rating [1, 14]: 100
Plant response rating, Barnyardgrass [1, 15]: 0
Plant response rating, Barnyardgrass [1, 16]: 30
Plant response rating, Corn [2, 13]: 0
Corn plant response rating [2, 14]: 20
Plant response rating, Corn [2, 15]: 0
Plant response rating, Corn [2, 16]: 0
Plant response rating, Foxtail, Giant [3, 13]: 10
Foxtail, Giant plant response rating [3, 14]: 40
Plant response rating, Foxtail, Giant [3, 15]: 10
Plant response rating, Foxtail, Giant [3, 16]: 30
Plant response rating, Crabgrass, Large [4, 13]: 20
Crabgrass, Large plant response rating [4, 14]: 50
Plant response rating, Crabgrass, Large [4, 15]: 0
Plant response rating, Crabgrass, Large [4, 16]: 50
Plant response rating, Morningglory [5, 13]: 60
Morningglory plant response rating [5, 14]: 100
Plant response rating, Morningglory [5, 16]: 60
Plant response rating, Pigweed [6, 13]: 80
Pigweed plant response rating [6, 14]: 100
Plant response rating, Pigweed [6, 15]: 50
Plant response rating, Pigweed [6, 16]: 90
Plant response rating, Velvetleaf [7, 13]: 70
Velvetleaf plant response rating [7, 14]: 60
Plant response rating, Velvetleaf [7, 15]: 40
Plant response rating, Velvetleaf [7, 16]: 60
Plant response rating, Wheat [8, 13]: 0
Wheat plant response rating [8, 14]: 0
Plant response rating, Wheat [8, 15]: 0
Plant response rating, Wheat [8, 16]: 0
Plant response rating, Flood, Barnyardgrass [9]: 30
Plant response rating, Barnyardgrass [9, 17]: 0
Plant response rating, Barnyardgrass [9, 18]: 0
Barnyardgrass plant response rating [9, 19]: 0
Plant response rating, Flood, Ducksalad [10]: 100
Plant response rating, Ducksalad [10, 17]: 85
Plant response rating, Ducksalad [10, 18]: 90
Ducksalad plant response rating [10, 19]: 75
Plant response rating, Flood, Rice [11]: 20
Plant response rating, Rice [11, 17]: 0
Plant response rating, Rice [11, 18]: 0
Rice plant response rating [11, 19]: 0
Plant response rating, Flood, Sedge, Umbrella [12]: 90
Plant response rating, Sedge, Umbrella [12, 17]: 80
Plant response rating, Sedge, Umbrella [12, 18]: 85
Sedge, Umbrella plant response rating [12, 19]: 65

O=C1CCCC(O)=C1C(=O)c1cnc(C2CCC2)n(-c2ccccc2)c1=O [Compound 114]
Plant response rating, Barnyardgrass [1, 13]: 70
Plant response rating, Barnyardgrass [1, 20]: 90
Plant response rating, Barnyardgrass [1, 15]: 30
Plant response rating, Barnyardgrass [1, 21]: 90
Plant response rating, Corn [2, 13]: 10
Plant response rating, Corn [2, 20]: 50
Plant response rating, Corn [2, 15]: 0
Plant response rating, Corn [2, 21]: 0
Plant response rating, Foxtail, Giant [3, 13]: 60
Plant response rating, Foxtail, Giant [3, 20]: 80
Plant response rating, Foxtail, Giant [3, 15]: 40
Plant response rating, Foxtail, Giant [3, 21]: 80
Plant response rating, Crabgrass, Large [4, 13]: 80
Plant response rating, Crabgrass, Large [4, 20]: 90
Plant response rating, Crabgrass, Large [4, 15]: 90
Plant response rating, Crabgrass, Large [4, 21]: 100
Plant response rating, Morningglory [5, 13]: 90
Plant response rating, Morningglory [5, 20]: 100
Plant response rating, Morningglory [5, 15]: 0
Plant response rating, Morningglory [5, 21]: 80
Plant response rating, Pigweed [6, 13]: 100
Plant response rating, Pigweed [6, 20]: 100
Plant response rating, Pigweed [6, 15]: 100
Plant response rating, Pigweed [6, 21]: 100
Plant response rating, Velvetleaf [7, 13]: 100
Plant response rating, Velvetleaf [7, 20]: 100
Plant response rating, Velvetleaf [7, 15]: 70
Plant response rating, Velvetleaf [7, 21]: 100
Plant response rating, Wheat [8, 13]: 0
Plant response rating, Wheat [8, 20]: 0
Plant response rating, Wheat [8, 15]: 0
Plant response rating, Wheat [8, 21]: 20
Plant response rating, Flood, Barnyardgrass [9]: 40
Plant response rating, Barnyardgrass [9, 17]: 20
Plant response rating, Flood, Ducksalad [10]: 75
Plant response rating, Ducksalad [10, 17]: 65
Plant response rating, Flood, Rice [11]: 20
Plant response rating, Rice [11, 17]: 0
Plant response rating, Flood, Sedge, Umbrella [12]: 40
Plant response rating, Sedge, Umbrella [12, 17]: 30
